Assay results: US8697739B2, “Bicyclic acetyl-CoA carboxylase inhibitors and uses thereof” (Novartis AG, priority 2010, dated 2014)

Target: T1, human acetyl-CoA carboxylase 2 (ACC2) (Homo sapiens, UniProt O00763)
T1 construct: The cDNA encoding amino acids 144 to 2458 of human acetyl-CoA carboxylase 2; made in house; host or cells: Sf9 insect cells (baculovirus, pFastBac1)
Test: Acetyl-CoA carboxylase enzyme assay (malonyl-CoA formation by LC/MS/MS)
Format: biochemical
Conditions: recombinant human ACC2 (aa 144-2458); read-out: IC50 ACC2
In short: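 Malonyl-CoA formation was read by LC/MS/MS MRM against a [13C3]-malonyl-CoA internal standard, after acetic acid quench. The enzyme was baculovirus/Sf9-expressed human ACC2 residues 144–2458, given 15 minutes room-temperature compound preincubation in HEPES pH 7.5 buffer with MgCl2, citrate and DTT. Substrate solution held 50 μM acetyl-CoA, 120 μM ATP and 2 mM KHCO3.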

T1 sequence (O00763 144-2458): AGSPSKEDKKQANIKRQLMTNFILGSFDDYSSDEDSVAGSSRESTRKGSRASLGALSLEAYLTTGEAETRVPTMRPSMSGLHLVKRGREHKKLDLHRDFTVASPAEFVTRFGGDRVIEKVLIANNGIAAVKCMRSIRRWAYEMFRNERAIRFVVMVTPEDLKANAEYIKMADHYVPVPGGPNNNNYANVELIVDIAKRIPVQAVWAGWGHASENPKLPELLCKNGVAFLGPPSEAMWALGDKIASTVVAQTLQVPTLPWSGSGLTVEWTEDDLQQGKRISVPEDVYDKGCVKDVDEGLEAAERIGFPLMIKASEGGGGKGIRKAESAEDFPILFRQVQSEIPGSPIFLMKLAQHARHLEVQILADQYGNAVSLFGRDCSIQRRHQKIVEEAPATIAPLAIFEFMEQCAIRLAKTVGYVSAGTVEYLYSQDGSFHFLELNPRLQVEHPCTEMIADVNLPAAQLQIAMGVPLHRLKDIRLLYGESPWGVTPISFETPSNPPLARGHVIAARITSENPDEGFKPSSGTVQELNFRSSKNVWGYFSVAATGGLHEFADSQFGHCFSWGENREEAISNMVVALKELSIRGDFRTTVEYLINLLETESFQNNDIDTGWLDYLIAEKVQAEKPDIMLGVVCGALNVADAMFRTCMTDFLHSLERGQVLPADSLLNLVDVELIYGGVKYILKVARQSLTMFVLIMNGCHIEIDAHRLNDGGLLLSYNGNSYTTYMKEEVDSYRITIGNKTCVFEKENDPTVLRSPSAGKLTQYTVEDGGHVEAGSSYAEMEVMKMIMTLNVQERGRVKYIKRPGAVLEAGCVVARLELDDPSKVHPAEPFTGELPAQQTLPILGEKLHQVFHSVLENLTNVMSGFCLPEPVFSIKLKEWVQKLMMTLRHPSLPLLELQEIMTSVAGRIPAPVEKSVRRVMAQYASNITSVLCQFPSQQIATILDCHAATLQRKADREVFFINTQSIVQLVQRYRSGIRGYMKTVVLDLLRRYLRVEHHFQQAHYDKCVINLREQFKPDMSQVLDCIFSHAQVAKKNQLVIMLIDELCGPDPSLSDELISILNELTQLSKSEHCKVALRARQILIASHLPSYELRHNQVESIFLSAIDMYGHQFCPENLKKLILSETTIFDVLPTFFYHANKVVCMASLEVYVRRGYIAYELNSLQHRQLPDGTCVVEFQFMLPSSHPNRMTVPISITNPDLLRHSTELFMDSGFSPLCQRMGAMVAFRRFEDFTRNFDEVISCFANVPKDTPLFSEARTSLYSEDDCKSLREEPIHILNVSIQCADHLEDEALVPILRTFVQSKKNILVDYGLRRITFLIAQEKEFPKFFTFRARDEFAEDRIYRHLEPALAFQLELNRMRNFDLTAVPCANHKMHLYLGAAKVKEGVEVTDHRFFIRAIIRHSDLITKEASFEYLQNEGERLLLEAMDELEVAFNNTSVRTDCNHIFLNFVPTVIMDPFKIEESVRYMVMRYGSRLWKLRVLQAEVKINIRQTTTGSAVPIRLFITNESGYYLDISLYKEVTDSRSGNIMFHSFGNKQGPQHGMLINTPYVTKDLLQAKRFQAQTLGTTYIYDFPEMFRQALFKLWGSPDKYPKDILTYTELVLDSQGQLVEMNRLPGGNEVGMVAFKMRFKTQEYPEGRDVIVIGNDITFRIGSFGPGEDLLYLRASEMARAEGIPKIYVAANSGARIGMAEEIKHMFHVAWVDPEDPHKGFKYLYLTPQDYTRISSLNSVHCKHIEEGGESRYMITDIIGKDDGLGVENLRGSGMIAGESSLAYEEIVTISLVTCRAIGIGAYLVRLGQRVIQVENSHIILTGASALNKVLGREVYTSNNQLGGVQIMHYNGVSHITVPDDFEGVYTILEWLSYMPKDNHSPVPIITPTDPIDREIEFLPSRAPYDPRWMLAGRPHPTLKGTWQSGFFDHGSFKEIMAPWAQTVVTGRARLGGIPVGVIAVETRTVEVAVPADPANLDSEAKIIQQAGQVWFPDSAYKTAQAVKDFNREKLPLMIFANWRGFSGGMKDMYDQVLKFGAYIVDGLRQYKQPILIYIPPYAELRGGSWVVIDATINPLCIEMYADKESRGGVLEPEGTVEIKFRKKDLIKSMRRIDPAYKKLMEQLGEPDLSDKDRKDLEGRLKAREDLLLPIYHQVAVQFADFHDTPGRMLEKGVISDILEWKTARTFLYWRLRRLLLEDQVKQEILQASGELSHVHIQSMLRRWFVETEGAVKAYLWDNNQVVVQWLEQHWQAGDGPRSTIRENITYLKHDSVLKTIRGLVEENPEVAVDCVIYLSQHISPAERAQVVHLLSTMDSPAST

Row | IC50 [nM] | SMILES
1 | 140 | CCN(C)C(=O)[C@H]1CC[C@H](NS(=O)(=O)c2ccc3cc(-c4ccc(CCC(=O)OC)cc4)n(C)c3c2)CC1 [Example 364, methyl 3-(4-(6-(N-((1r,4r)-4-(ethyl(methyl)carbamoyl)cyclohexyl)sulfamoyl)-1-methyl-1H-indol-2-yl)phenyl)propanoate]
2 | 410 | CCN(C)C(=O)[C@H]1CC[C@H](NS(=O)(=O)c2ccc3cc(-c4ccc(CCC(=O)O)cc4)n(C)c3c2)CC1 [Example 365, 3-(4-(6-(N-((1r,4r)-4-(ethyl(methyl)carbamoyl)cyclohexyl)sulfamoyl)-1-methyl-1H-indol-2-yl)phenyl)propanoic acid]
3 | 15 | CCN(C)C(=O)[C@H]1CC[C@H](NS(=O)(=O)c2ccc3c(Cl)c(-c4ccc(CCC(=O)O)cc4)n(C)c3c2)CC1 [Example 366, 3-(4-(3-chloro-6-(N-((1r,4r)-4-(ethyl(methyl)carbamoyl)cyclohexyl)sulfamoyl)-1-methyl-1H-indol-2-yl)phenyl)propanoic acid]
4 | 30 | CCN(C)C(=O)[C@H]1CC[C@H](NS(=O)(=O)c2ccc3c(Cl)c(-c4ccc(CCC(=O)OC)cc4)n(C)c3c2)CC1 [Example 367, methyl 3-(4-(3-chloro-6-(N-((1r,4r)-4-(ethyl(methyl)carbamoyl)cyclohexyl)sulfamoyl)-1-methyl-1H-indol-2-yl)phenyl)propanoate]
5 | 145 | Cn1c(C2CC2)cc2ccc(S(=O)(=O)N[C@H]3CC[C@H](C(=O)N4CCCC(C(C)(C)O)C4)CC3)cc21 (some centres unmarked) [Example 368, 2-cyclopropyl-N-((1r,4r)-4-(3-(2-hydroxypropan-2-yl)piperidine-1-carbonyl)cyclohexyl)-1-methyl-1H-indole-6-sulfonamide]
6 | 180 | CCOC(=O)CCc1cc2ccc(S(=O)(=O)N[C@H]3CC[C@H](C(=O)N4CCCC4c4ccc(F)cc4)CC3)cc2n1C (some centres unmarked) [Example 369, ethyl 3-(6-(N-((1r,4r)-4-(2-(4-fluorophenyl)pyrrolidine-1-carbonyl)cyclohexyl)sulfamoyl)-1-methyl-1H-indol-2-yl)propanoate]
7 | 270 | Cn1c(CCC(=O)O)cc2ccc(S(=O)(=O)N[C@H]3CC[C@H](C(=O)N4CCCC4c4ccc(F)cc4)CC3)cc21 (some centres unmarked) [Example 370, 3-(6-(N-((1r,4r)-4-(2-(4-fluorophenyl)pyrrolidine-1-carbonyl)cyclohexyl)sulfamoyl)-1-methyl-1H-indol-2-yl)propanoic acid]
8 | 115 | CCOC(=O)CCc1c(Cl)c2ccc(S(=O)(=O)N[C@H]3CC[C@H](C(=O)N4CCCC4c4ccc(F)cc4)CC3)cc2n1C (some centres unmarked) [Example 371, ethyl 3-(3-chloro-6-(N-((1r,4r)-4-(2-(4-fluorophenyl)pyrrolidine-1-carbonyl)cyclohexyl)sulfamoyl)-1-methyl-1H-indol-2-yl)propanoate]
9 | 45 | Cn1c(CCC(=O)O)c(Cl)c2ccc(S(=O)(=O)N[C@H]3CC[C@H](C(=O)N4CCCC4c4ccc(F)cc4)CC3)cc21 (some centres unmarked) [Example 372, 3-(3-chloro-6-(N-((1r,4r)-4-(2-(4-fluorophenyl)pyrrolidine-1-carbonyl)cyclohexyl)sulfamoyl)-1-methyl-1H-indol-2-yl)propanoic acid]
10 | 75 | O=C([C@H]1CC[C@H](NS(=O)(=O)c2ccc3c(Cl)c(-c4ccccc4)[nH]c3c2)CC1)N1CCCCC1 [Example 373, 3-chloro-2-phenyl-N-((1r,4r)-4-(piperidine-1-carbonyl)cyclohexyl)-1H-indole-6-sulfonamide]
11 | 20 | Cn1c(-c2ccccc2)c(Cl)c2ccc(S(=O)(=O)N[C@H]3CC[C@H](C(=O)N4CCCCC4)CC3)cc21 [Example 374, 3-chloro-1-methyl-2-phenyl-N-((1r,4r)-4-(piperidine-1-carbonyl)cyclohexyl)-1H-indole-6-sulfonamide]
12 | 75 | O=C([C@H]1CC[C@H](NS(=O)(=O)c2ccc3cc(-c4ccccc4)[nH]c3c2)CC1)N1CCCCC1 [Example 375, 2-phenyl-N-((1r,4r)-4-(piperidine-1-carbonyl)cyclohexyl)-1H-indole-6-sulfonamide]
13 | 95 | Cn1c(-c2ccccc2)cc2ccc(S(=O)(=O)N[C@H]3CC[C@H](C(=O)N4CCCCC4)CC3)cc21 [Example 376, 1-methyl-2-phenyl-N-((1r,4r)-4-(piperidine-1-carbonyl)cyclohexyl)-1H-indole-6-sulfonamide]
14 | 10 | COC[C@@H](NC(=O)[C@H]1CC[C@H](NS(=O)(=O)c2ccc3cc(C4CC4)n(C)c3c2)CC1)c1ccccc1 [Example 377, (1r,4S)-4-(2-cyclopropyl-1-methyl-1H-indole-6-sulfonamido)-N-((S)-2-methoxy-1-phenylethyl)cyclohexanecarboxamide]
15 | 10 | Cn1c(-c2ccccc2)cc2ccc(S(=O)(=O)N[C@H]3CC[C@H](C(=O)N4CCCC(C(C)(C)O)C4)CC3)cc21 (some centres unmarked) [Example 378, N-((1r,4r)-4-(3-(2-hydroxypropan-2-yl)piperidine-1-carbonyl)cyclohexyl)-1-methyl-2-phenyl-1H-indole-6-sulfonamide]
16 | 580 | COc1ccc(COC(=O)C2(C)CCC(NS(=O)(=O)c3ccc4c(ccn4C)c3)CC2)cc1 (centres unmarked) [Example 379, 4-methoxybenzyl 1-methyl-4-(1-methyl-1H-indole-5-sulfonamido)cyclohexanecarboxylate]
17 | 75 | Cn1c(C2CC2)c(C#N)c2ccc(S(=O)(=O)N[C@H]3CC[C@H](C(=O)N4CCN[C@@H](C(F)(F)F)C4)CC3)cc21 [Example 380, 3-cyano-2-cyclopropyl-1-methyl-N-((1R,4r)-4-((R)-3-(trifluoromethyl)piperazine-1-carbonyl)cyclohexyl)-1H-indole-6-sulfonamide]
18 | 210 | Cn1c(C2CC2)c(C#N)c2ccc(S(=O)(=O)N[C@H]3CC[C@H](C(=O)N4CCCCC4)CC3)cc21 [Example 381, 3-cyano-2-cyclopropyl-1-methyl-N-((1r,4r)-4-(piperidine-1-carbonyl)cyclohexyl)-1H-indole-6-sulfonamide]
19 | 95 | C[C@H]1CCCCN1C(=O)[C@H]1CC[C@H](NS(=O)(=O)c2ccc3c(C#N)c(C4CC4)n(C)c3c2)CC1 [Example 382, 3-cyano-2-cyclopropyl-1-methyl-N-((1S,4r)-4-((S)-2-methylpiperidine-1-carbonyl)cyclohexyl)-1H-indole-6-sulfonamide]
20 | < 10 | CC(C)(O)C1CCCN(C(=O)[C@H]2CC[C@H](NS(=O)(=O)c3ccc4c(Cl)c(-c5ccccc5)[nH]c4c3)CC2)C1 (some centres unmarked) [Example 383, 3-chloro-N-((1r,4r)-4-(3-(2-hydroxypropan-2-yl)piperidine-1-carbonyl)cyclohexyl)-2-phenyl-1H-indole-6-sulfonamide]
21 | < 10 | Cn1c(-c2ccccc2)c(Cl)c2ccc(S(=O)(=O)N[C@H]3CC[C@H](C(=O)N4CCCC(C(C)(C)O)C4)CC3)cc21 (some centres unmarked) [Example 384, 3-chloro-N-((1r,4r)-4-(3-(2-hydroxypropan-2-yl)piperidine-1-carbonyl)cyclohexyl)-1-methyl-2-phenyl-1H-indole-6-sulfonamide]
22 | 920 | Cn1ccc2cc(S(=O)(=O)NC3CCC(C)(C(=O)N4CCOCC4)CC3)ccc21 (centres unmarked) [Example 385, 1-methyl-N-(4-methyl-4-(morpholine-4-carbonyl)cyclohexyl)-1H-indole-5-sulfonamide]
23 | 25 | COC(=O)CCc1ccc(-c2cc3ccc(S(=O)(=O)N[C@H]4CC[C@H](C(=O)N5CCCC5c5ccc(F)cc5)CC4)cc3n2C)cc1 (some centres unmarked) [Example 386, methyl 3-(4-(6-(N-((1r,4r)-4-(2-(4-fluorophenyl)pyrrolidine-1-carbonyl)cyclohexyl)sulfamoyl)-1-methyl-1H-indol-2-yl)phenyl)propanoate]
24 | < 10 | Cn1c(-c2ccc(CCC(=O)O)cc2)cc2ccc(S(=O)(=O)N[C@H]3CC[C@H](C(=O)N4CCCC4c4ccc(F)cc4)CC3)cc21 (some centres unmarked) [Example 387, 3-(4-(6-(N-((1r,4r)-4-(2-(4-fluorophenyl)pyrrolidine-1-carbonyl)cyclohexyl)sulfamoyl)-1-methyl-1H-indol-2-yl)phenyl)propanoic acid]
25 | 110 | CC(C)OC(=O)C1(C)CCC(NS(=O)(=O)c2ccc3c(ccn3C)c2)CC1 (centres unmarked) [Example 388, isopropyl 1-methyl-4-(1-methyl-1H-indole-5-sulfonamido)cyclohexanecarboxylate]
26 | 15 | Cn1c(C2CC2)c(C#N)c2ccc(S(=O)(=O)N[C@H]3CC[C@H](C(=O)N4CCC[C@@H]4C(F)(F)F)CC3)cc21 [Example 389, 3-cyano-2-cyclopropyl-1-methyl-N-((1R,4r)-4-((R)-2-(trifluoromethyl)pyrrolidine-1-carbonyl)cyclohexyl)-1H-indole-6-sulfonamide]
27 | 10 | Cn1c(C2CC2)c(C#N)c2ccc(S(=O)(=O)N[C@H]3CC[C@H](C(=O)N4CCCC4C(C)(C)C)CC3)cc21 (some centres unmarked) [Example 390, N-((1r,4r)-4-(2-tert-butylpyrrolidine-1-carbonyl)cyclohexyl)-3-cyano-2-cyclopropyl-1-methyl-1H-indole-6-sulfonamide]
28 | 760 | CCOC(=O)C1(C)CCC(NS(=O)(=O)c2ccc3c(ccn3C)c2)CC1 (centres unmarked) [Example 391, ethyl 1-methyl-4-(1-methyl-1H-indole-5-sulfonamido)cyclohexanecarboxylate]
29 | 115 | Cn1c(-c2ccc(CCC(=O)O)cc2)cc2ccc(S(=O)(=O)N[C@H]3CC[C@H](C(=O)N4CCC[C@@H]4c4ccc(F)cc4)CC3)cc21 [Example 392, 3-(4-(6-(N-((1R,4r)-4-((R)-2-(4-fluorophenyl)pyrrolidine-1-carbonyl)cyclohexyl)sulfamoyl)-1-methyl-1H-indol-2-yl)phenyl)propanoic acid]
